According to US7862811B2, “Protease inhibition for prevention or treatment of heart failure” (Regents of the University of Colorado, priority 2004, dated 2011):
Each block holds one compound with its values, some of them ahead of it. Square brackets hold non-standard residues; d marks the D form. Peptide text beside a SMILES is read from it. * marks the point of attachment. Nle = CCCC[C@H](N)C(=O)O; Cbz = O=C(OCc1ccccc1)*

Assays:
[1] = tested on: MMP; conditions: acute pig model, orally-active; cited from earlier work
[2] = tested on: isolated rat hearts; conditions: global ischemia; cited from earlier work
[3] = tested on: cultured rat lenses; conditions: calcium ionophore A23187; cited from earlier work
[4] = tested on: Molt-4 cells; conditions: cited from earlier work
[5] = tested on: m-calpain from porcine kidney; conditions: cited from earlier work
[6] = tested on: isolated rat hearts; conditions: elevated LV end-diastolic pressure without ischemia; cited from earlier work
[7] = tested on: RV contractile dysfunction from acute RV pressure overload

SMILES: NC(=O)C1=C(O)C[C@@H]2C[C@@H]3Cc4cccc(O)c4C(=O)C3=C(O)[C@]2(O)C1=O [COL-3]
MMP-mediated lung injury [1]: prevent

SMILES: CCCC[C@@H](C=O)NC(=O)[C@H](CC(C)C)NC(=O)[C@H](CC(C)C)NC(C)=O [calpain inhibitor-1] (Ac-Leu-Leu-[Nle]-aldehyde)
cytoskeletal degradation and myocardial stunning [2]: attenuates

SMILES: CC(C)C[C@@H](C=O)NC(=O)[C@@H](NS(=O)(=O)c1ccc(F)cc1)C(C)C [SJA6017, N-(4-fluorophenylsulfonyl)-L-valyl-L-leucinal]
nuclear opacity and proteolysis of crystallins and alpha-spectrin [3]: reduced
cell permeability [4]: cell-permeable
binding to the active site of m-calpain ([5]; casein zymography): reversibly bound
inhibition of purified m-calpain ([5]; in vitro): strong inhibition

SMILES: CCCC[C@@H](C=O)NC(=O)[C@H](CC(C)C)NC(=O)OCc1ccccc1 [calpeptin]
TnI degradation and stunning [6]: prevented

independent hemodynamic effects ([7]; pig, in vivo): no independent hemodynamic effects
SMILES: CC(C)[C@H](NC(=O)OCc1ccccc1)C(=O)N[C@H](C=O)Cc1ccccc1 [MDL-28170, carbobezoxy-valinyl-phenylalaninal] (Cbz-Val-Phe-aldehyde)
attenuation of RV dysfunction resulting from acute RV pressure overload (RVPO) ([7]; 90 min RVPO, 30 min recovery, versus vehicle): more than 50%
preload-adjusted external work of the RV free wall ([7]; thirty min after release of pulmonary artery constriction, n=7, p<0.05 vs vehicle): 69 % of baseline
